Six compounds from ChEMBL document CHEMBL4330090, “The effect of replacing the ester bond with an amide bond and of overall stereochemistry on the activity of daptomycin” (2019) can be followed below.

≈ marks a conversion by molar mass, not a printed value. Calls of active or inactive are those of the source. The rule behind the calls is not given here.

Assay [1] deals with Bacillus subtilis. Description: Antibacterial activity against Bacillus subtilis 1046 in presence of 5 mM Ca2+. It is filed as functional.
Assay [2] relates to Lipid bilayer. Description: Binding affinity to DMPC/DMPG large unilamellar vesicles assessed as increase in intrinsic fluorescence in presence of >1 mM Ca2+ by fluorescence based assay.
Assay [3] deals with Bacillus subtilis. Description: Antibacterial activity against Bacillus subtilis 1046 in presence of 1.25 mM Ca2+. It is filed as functional.
The subject of a further assay is Staphylococcus aureus. Description: Antibacterial activity against Staphylococcus aureus. It is filed as functional.
The subject of assay [4] is Lipid bilayer. Description: Binding affinity to DMPC/DMPG large unilamellar vesicles assessed as increase in intrinsic fluorescence in presence of >0.1 mM Ca2+ by fluorescence based assay.
The test system of assay [5] is Lipid bilayer. Nature of the assay: Binding affinity to DMPC/DMPG large unilamellar vesicles assessed as increase in intrinsic fluorescence in presence of >10 mM Ca2+ by fluorescence based assay.
Assay [6] deals with Lipid bilayer. Description: Binding affinity to DMPC/DMPG large unilamellar vesicles assessed as increase in intrinsic fluorescence in presence of 10 mM Ca2+ by fluorescence based assay.
For assay [7], the system named is Lipid bilayer. Nature of the assay: Binding affinity to DMPC/DMPG large unilamellar vesicles assessed as increase in intrinsic fluorescence in presence of 1 mM Ca2+ by fluorescence based assay.

`CCCCCCCCCC(=O)N[C@@H](Cc1c[nH]c2ccccc12)C(=O)N[C@@H](CC(N)=O)C(=O)N[C@@H](CC(=O)O)C(=O)N[C@@H]1C(=O)NCC(=O)N[C@@H](CCCCN)C(=O)N[C@@H](CC(=O)O)C(=O)N[C@H](C)C(=O)N[C@@H](CC(=O)O)C(=O)NCC(=O)N[C@H](CO)C(=O)N[C@@H](CCC(=O)O)C(=O)N[C@@H](Cc2c[nH]c3ccccc23)C(=O)N[C@@H]1C`: the minimum inhibitory concentration (MIC) with Bacillus subtilis [1] turned out to be 10 µg/mL; in the assay with Bacillus subtilis [3], 50 µg/mL. Moreover, the result in the assay on Lipid bilayer [2] was Active.

Regarding `CCCCCCCCCC(=O)N[C@@H](Cc1c[nH]c2ccccc12)C(=O)N[C@H](CC(N)=O)C(=O)N[C@@H](CC(=O)O)C(=O)N[C@@H]1C(=O)NCC(=O)N[C@@H](CCCN)C(=O)N[C@@H](CC(=O)O)C(=O)N[C@H](C)C(=O)N[C@@H](CC(=O)O)C(=O)NCC(=O)N[C@H](CO)C(=O)N[C@@H]([C@H](C)CC(=O)O)C(=O)N[C@@H](CC(=O)c2ccccc2N)C(=O)O[C@@H]1C`, the MIC is 0.5 µg/mL in the assay on Bacillus subtilis [1], 1.9 µg/mL (≈ 1.17 µM) against Staphylococcus aureus and 0.75 µg/mL in the assay with Bacillus subtilis [3]. For the same compound, the outcome with Lipid bilayer [4] was Active.

As to `CCCCCCCCCC(=O)N[C@H](Cc1c[nH]c2ccccc12)C(=O)N[C@H](CC(N)=O)C(=O)N[C@@H](CC(=O)O)C(=O)N[C@H]1CNC(=O)[C@@H](Cc2c[nH]c3ccccc23)NC(=O)[C@@H](CCC(=O)O)NC(=O)[C@H](CO)NC(=O)CNC(=O)[C@@H](CC(=O)O)NC(=O)[C@H](C)NC(=O)[C@@H](CC(=O)O)NC(=O)[C@@H](CCCCN)NC(=O)CNC1=O`, in the assay with Staphylococcus aureus, the lowest concentration to inhibit growth (MIC) was 160 µg/mL (≈ 99.9 µM).

As for `CCCCCCCCCC(=O)N[C@@H](Cc1c[nH]c2ccccc12)C(=O)N[C@@H](CC(N)=O)C(=O)N[C@@H](CC(=O)O)C(=O)N[C@@H]1C(=O)NCC(=O)N[C@@H](CCCCN)C(=O)N[C@@H](CC(=O)O)C(=O)N[C@H](C)C(=O)N[C@@H](CC(=O)O)C(=O)NCC(=O)N[C@H](CO)C(=O)N[C@@H](CCC(=O)O)C(=O)N[C@@H](Cc2c[nH]c3ccccc23)C(=O)N[C@H]1C`, the minimum inhibitory concentration (MIC) with Bacillus subtilis [1] is 10 µg/mL; in the assay on Bacillus subtilis [3], over 100 µg/mL. For the same compound, the result in the assay with Lipid bilayer [5] was Active.

For the compound `CCCCCCCCCC(=O)N[C@@H](Cc1c[nH]c2ccccc12)C(=O)N[C@@H](CC(N)=O)C(=O)N[C@@H](CC(=O)O)C(=O)N[C@@H]1C(=O)NCC(=O)N[C@@H](CCCCN)C(=O)N[C@@H](CC(=O)O)C(=O)N[C@H](C)C(=O)N[C@@H](CC(=O)O)C(=O)NCC(=O)N[C@H](CO)C(=O)N[C@@H](CCC(=O)O)C(=O)N[C@@H](Cc2c[nH]c3ccccc23)C(=O)O[C@@H]1C`, the minimum inhibitory concentration (MIC) in the assay on Bacillus subtilis [1] is 0.5 µg/mL; with Bacillus subtilis [3], 1.5 µg/mL. Further, the result in the assay on Lipid bilayer [4] was Active.

`CCCCCCCCCC(=O)N[C@H](Cc1c[nH]c2ccccc12)C(=O)N[C@H](CC(N)=O)C(=O)N[C@@H](CC(=O)O)C(=O)N[C@H]1C(=O)NCC(=O)N[C@H](CCCCN)C(=O)N[C@H](CC(=O)O)C(=O)N[C@@H](C)C(=O)N[C@H](CC(=O)O)C(=O)NCC(=O)N[C@@H](CO)C(=O)N[C@H](CCC(=O)O)C(=O)N[C@H](Cc2c[nH]c3ccccc23)C(=O)O[C@H]1C`: the results for the MIC in the assay on Bacillus subtilis [1] and in the assay with Bacillus subtilis [3] were 100 µg/mL and over 200 µg/mL, respectively. Further, the result in the assay on Lipid bilayer [6] and in the assay on Lipid bilayer [7] was Active.
